Converted amounts (≈) assume the structure as drawn. Where two headings read alike, the source gives them in different places. Positions of bridges follow the written chain, without caps; N, C: chain ends. Non-standard residues stand in square brackets, D forms with d. Residues, ends and D or L forms follow the SMILES beside them. d2Nal = N[C@H](Cc1ccc2ccccc2c1)C(=O)O

Series [1] deals with P. aeruginosa (ATCC 10145). As to the kind of experiment: Broad-spectrum activity against Gram-Negative bacteria (MIC). The note with it: Table 16, Gram-negative panel. Format: cell-based.
The subject of series [2] is Staphylococcus aureus ATCC 29213.
A further series deals with MRSA (ATCC BAA-1556). The note with it: ATCC BAA-1556.
Series [3] has as its system Acinetobacter baumannii (ATCC BAA-1605).
The subject of series [4] is Escherichia coli (E. Coli, ATCC 25922). To be noted: ATCC 25922.
For series [5], the system named is Pseudomonas aeruginosa (ATCC 10145).
Series [6] concerns Enterococcus faecalis ATCC 29212. To be noted: for MIC: ATCC 29212.
In series [7] the test system is Escherichia coli (ATCC 25922).
For series [8], the system named is Streptococcus pneumoniae ATCC 51938. The note with it: for MIC: ATCC 51938.
The subject of series [9] is Enterococcus faecium ATCC 700221. The note with it: for MIC: ATCC 700221.
Series [10] has as its system Bacillus cereus (ATCC-13061).
Series [11] has as its system Klebsiella pneumoniae (KPC, ATCC BAA-1705). The note with it: ATCC BAA-1705.
For series [12], the system named is Streptococcus pneumoniae ATCC 49619. The note with it: for MIC: ATCC 49619.
Another series has as its system E. coli (ATCC BAA-2452). As to the kind of experiment: Broad-spectrum activity against Gram-Negative bacteria (MIC). Format: cell-based. To be noted: Table 16, Gram-negative panel.
The test system of series [13] is Bacillus subtilis (ATCC-6633).
In series [14] the test system is Pseudomonas aeruginosa (ATCC 27883). To be noted: P. aeruginosa ATCC 27883.
For series [15], the system named is Escherichia coli (ATCC BAA-2452).
The subject of another series is B. cereus (ATCC-13061). Kind of series: Broad-spectrum activity against Gram-Positive bacteria (MIC). More on the design: unit not given here. The series is classed as cell-based.
Another series deals with B. subtilis (ATCC-6633). The series is described as above. The series is classed as cell-based. The arrangement: unit not given here.
For series [16], the system named is Pseudomonas aeruginosa (PSA, ATCC 27883). As to the kind of experiment: Synergy checkerboard assay (FIC index). The series is classed as cell-based. The note with it: Table 27; Pseudomonas aeruginosa (ATCC 27883); peptide alone.
Series [17] has as its system Methicillin-resistant Staphylococcus aureus MRSA (ATCC BAA-1556).
For series [18], the system named is Pseudomonas aeruginosa (ATCC BAA-1744).
Series [19] relates to Klebsiella pneumoniae (ATCC BAA-1705). The note with it: Table 16, Gram-negative panel.
Series [20] concerns A. baumannii (ATCC BAA-1605). As to the kind of experiment: Broad-spectrum activity against Gram-Negative bacteria (MIC). Format: cell-based. The note with it: Table 16, Gram-negative panel.
Series [21] concerns Enterococcus faecalis ATCC 51575. The note with it: for MIC: ATCC 51575.
In series [22] the test system is Enterococcus faecium ATCC 27270. To be noted: for MIC: ATCC 27270.
The test system of series [23] is P. aeruginosa (ATCC BAA-1744). As to the kind of experiment: Broad-spectrum activity against Gram-Negative bacteria (MIC). The series is classed as cell-based. The note with it: Table 16, Gram-negative panel.
The test system of series [24] is Klebsiella pneumoniae ATCC 13883.
The next series in a line: in vitro. The note with it: human, fresh human red blood cells (washed), pH 7.4.
For series [25], the system named is K. pneumoniae strain ATCC BAA-2470 biofilm.
Protocol: Bacteria. The bacterial strains employed in these assays were obtained from the American Type Culture Collection (ATCC). Each strain was propagated as recommended by the ATCC and each strain was stored as a frozen glycerol stock at −80° C.
Bacterial Propagation. […] Following the incubation, the culture was diluted to an optical density 625 nm (OD625) of 0.1 in cation adjusted Mueller Hinton Broth (CAMHB), which is equivalent to 1×10^8 CFU/mL. The culture was further diluted to 1×10^6 CFU/mL which was used for the assay.
Determination of the Temporal Effects of SPL7013 Addition to Inhibit Biofilm Formation. Each strain of bacteria was adjusted to a concentration of 1×10^6 CFU/mL and added to a 96-well flat-bottomed plate in a volume of 100 mL. One-hundred microliters (100 mL) of each compound at 10 concentrations was added in triplicate wells. The cultures were incubated for 24 hours at 37° C. under the appropriate growth conditions for each organism. Following the incubation, the media was removed, and the formed biofilms were fixed for 1 hour at 60° C. Two-hundred microliters (200 mL) of 0.06% crystal violet was added to the wells for 5 to 10 minutes and the wells were then gently washed three times with deionized H2O to remove the crystal violet. Following crystal violet staining 200 mL of 70% ethanol was added to the wells.

The term MIC denotes the lowest concentration found to suppress growth. “c[Arg-Arg-arg-arg-naI-Trp-naI] [IFX-135]” showed an MIC P. aeruginosa (ATCC 10145) in series [1] of 25 µg/mL. The MIC was 2 µg/mL in series [2]; 16 µg/mL in [3] (Table 36, Acinetobacter baumannii (ATCC BAA-1605)); 8 µg/mL with E. coli (Table 36, E. coli ATCC 25922); 32 µg/mL in series [5] (Table 36, Pseudomonas aeruginosa (ATCC 10145)); 8 µg/mL in series [6]; 16 µg/mL in series [8]. The minimal inhibitory concentration (MIC) was 4 µg/mL in series [9]; 8 µg/mL in series [10]; 16 µg/mL in series [12]; 2 µg/mL in series [13]; 16 µg/mL in [15] (Table 36, Escherichia coli (ATCC BAA-2452)); 16 µg/mL in series [18] (Table 36, Pseudomonas aeruginosa (ATCC BAA-1744)). Further, the MIC worked out at 16 µg/mL against KPC (Table 36, Klebsiella pneumoniae (ATCC BAA-1705)); 16 µg/mL in [21]; 4 µg/mL in [22]; 32 µg/mL against PSA (Table 36, P. aeruginosa ATCC 27883); 2 µg/mL against MRSA; 64 µg/mL in series [24] (Table 36, Klebsiella pneumonia (ATCC 13883)). The “IFX135 MIC” value in the series with MRSA (ATCC BAA-1556) was found to be 2 µg/mL; in [4], 8 µg/mL; in [11], 16 µg/mL; in [16], 32 µg/mL. Also, the “Broad-spectrum activity E. faecalis (ATCC 29212)” value in series [6] (E. faecalis ATCC 29212) amounted to 6.2. Moreover, the “MIC E. coli ATCC 25922” value in series [7] (E. coli ATCC 25922) worked out at 8 µg/mL. Also, the “Broad-spectrum activity S. pneumoniae (ATCC 51938)” value in [8] (S. pneumoniae ATCC 51938) stood at 12.5. Moreover, the “Broad-spectrum activity E. faecium (ATCC 700221)” value in series [9] (E. faecium ATCC 700221) was found to be 3.1. Moreover, the “Broad-spectrum activity S. pneumoniae (ATCC 49619)” value in series [12] (S. pneumoniae ATCC 49619) is on record as 12.5. In addition, in the series with E. coli (ATCC BAA-2452), the MIC E. coli (ATCC BAA-2452) was 12.5 µg/mL. The “MIC P. aeruginosa ATCC 27883” value in [14] worked out at 32 µg/mL. Besides, the “Broad-spectrum activity B. cereus (ATCC-13061)” value in the series with B. cereus (ATCC-13061) was 6.2. The “Broad-spectrum activity B. subtilis (ATCC-6633)” value in the series with B. subtilis (ATCC-6633) was 1.5. Further, the “MIC MRSA ATCC BAA-1556” value in series [17] (MRSA ATCC BAA-1556) is 1.5 µg/mL. In [19], this compound displayed an MIC K. pneumonia (ATCC BAA-1705) of 12.5 µg/mL. In [20], the MIC A. baumannii (ATCC BAA-1605) is 12.5 µg/mL. Further, the “MIC S. aureus ATCC 29213” value in the series with S. aureus ATCC 29213 (S. aureus ATCC 29213) stood at 1.5 µg/mL. Moreover, the “Broad-spectrum activity E. faecalis (ATCC 51575)” value in series [21] (E. faecalis ATCC 51575) was 12.5. The “Broad-spectrum activity E. faecium (ATCC 27270)” value in [22] (E. faecium ATCC 27270) stood at 3.1. Moreover, the MIC P. aeruginosa (ATCC BAA-1744) in series [23] worked out at 12.5 µg/mL. In [24] (Table 16, Gram-negative panel), the MIC K. pneumonia (ATCC 13883) came out at 50 µg/mL.
In general, HC50 refers to the concentration giving 50% haemolysis. Take `N=C(N)NCCC[C@@H]1NC(=O)[C@@H](CCCNC(=N)N)NC(=O)[C@H](CCCNC(=N)N)NC(=O)[C@@H](Cc2ccc3ccccc3c2)NC(=O)[C@@H](Cc2ccc3ccccc3c2)NC(=O)[C@H](Cc2c[nH]c3ccccc23)NC(=O)[C@@H](CCCNC(=N)N)NC1=O` [IFX-111, c[Arg-arg-Arg-arg-Trp-naI-naI]] (cyclo(R[dR]R[dR]W[d2Nal][d2Nal])): the “MIC E. coli ATCC 25922” value in series [7] (ATCC 25922) is 6.2 µg/mL (≈ 5.14 µM). The same compound returned an HC50 at 0.5 h in the series “in vitro” of 205 µg/mL. Besides, the “MIC P. aeruginosa ATCC 27883” value in series [14] was 12.5 µg/mL (≈ 10.4 µM). Further, the “inhibition of biofilm formation” value in [25] (ATCC BAA-2470) was not above 23%. Moreover, the “MIC MRSA ATCC BAA-1556” value in series [17] (ATCC BAA-1556) was 1.5 µg/mL (≈ 1.24 µM). In addition, in the series on S. aureus ATCC 29213 (ATCC 29213), the “MIC S. aureus ATCC 29213” value was 1.5 µg/mL (≈ 1.24 µM).
With `N=C(N)NCCC[C@@H]1NC(=O)[C@H](CCCNC(=N)N)NC(=O)[C@H](CCCNC(=N)N)NC(=O)[C@@H]2CSSC[C@H](NC(=O)[C@H](CCCNC(=N)N)NC1=O)C(=O)N[C@@H](Cc1c[nH]c3ccccc13)C(=O)N[C@@H](Cc1c[nH]c3ccccc13)C(=O)N[C@@H](Cc1c[nH]c3ccccc13)C(=O)N[C@@H](Cc1c[nH]c3ccccc13)C(=O)N2` [[R3CW4CR] (IFX-330)] (cyclo(RRRCWWWWCR); disulfide 4-9), the MIC was found to be 16 µg/mL (≈ 10.2 µM) in [2]; 32 µg/mL (≈ 20.3 µM) in [3] (ATCC BAA-1605); 32 µg/mL (≈ 20.3 µM) in the series on E. coli; 64 µg/mL (≈ 40.7 µM) in series [5] (ATCC 10145); 32 µg/mL (≈ 20.3 µM) in series [6]; 8 µg/mL (≈ 5.08 µM) in series [9]. For the same compound, the MIC in [10] worked out at 16 µg/mL (≈ 10.2 µM); in series [13] it was 8 µg/mL (≈ 5.08 µM); in series [15] (ATCC BAA-2452) it was 32 µg/mL (≈ 20.3 µM); in series [18] (ATCC BAA-1744), 32 µg/mL (≈ 20.3 µM); with KPC it was 32 µg/mL (≈ 20.3 µM); in series [21], 32 µg/mL (≈ 20.3 µM). For the same compound, the MIC in series [22] came out at 8 µg/mL (≈ 5.08 µM); in the series on PSA, 128 µg/mL (≈ 81.3 µM); in the series on MRSA it was 8 µg/mL (≈ 5.08 µM); in series [24] (ATCC 13883), 32 µg/mL (≈ 20.3 µM).
Take `CN(C)c1cc(NC(=O)CNC(C)(C)C)c(O)c2c1C[C@H]1C[C@H]3[C@H](N(C)C)C(O)=C(C(N)=O)C(=O)[C@@]3(O)C(O)=C1C2=O` [Tigecycline, reference compound]: in series [25] (K. pneumoniae, two of the lowest concentrations, 0.2 mg/mL and 0.1 mg/mL), the “change of biofilm formation” value is recorded as “increase in biofilm formation”.
As to `N=C(N)NCCC[C@@H]1NC(=O)[C@H](CCCNC(=N)N)NC(=O)[C@H](CCCNC(=N)N)NC(=O)[C@H](CCCCN)NC(=O)[C@H](Cc2c[nH]c3ccccc23)NC(=O)[C@H](Cc2c[nH]c3ccccc23)NC(=O)[C@H](Cc2c[nH]c3ccccc23)NC(=O)[C@H](Cc2c[nH]c3ccccc23)NC(=O)[C@H](CCCNC(=N)N)NC(=O)[C@H](CCCNC(=N)N)NC1=O` [[R5W4K] (IFX-315)] (cyclo(RRRRRWWWWK)), the MIC was determined as 8 µg/mL (≈ 4.84 µM) in series [2]; 32 µg/mL (≈ 19.3 µM) in series [3] (ATCC BAA-1605); 16 µg/mL (≈ 9.67 µM) against E. coli; 32 µg/mL (≈ 19.3 µM) in [5] (ATCC 10145); 16 µg/mL (≈ 9.67 µM) in series [6]; 2 µg/mL (≈ 1.21 µM) in series [8]. Moreover, the MIC in series [9] came to 8 µg/mL (≈ 4.84 µM); in series [10], 16 µg/mL (≈ 9.67 µM); in [12], 2 µg/mL (≈ 1.21 µM); in [13] it was 8 µg/mL (≈ 4.84 µM); in series [15] (ATCC BAA-2452), 25 µg/mL (≈ 15.1 µM); in series [18] (ATCC BAA-1744) it was 16 µg/mL (≈ 9.67 µM). Also, the MIC was 32 µg/mL (≈ 19.3 µM) in the series on KPC; 32 µg/mL (≈ 19.3 µM) in [21]; 8 µg/mL (≈ 4.84 µM) in series [22]; 16 µg/mL (≈ 9.67 µM) against PSA; 8 µg/mL (≈ 4.84 µM) in the series on MRSA; 8 µg/mL (≈ 4.84 µM) in [24] (ATCC 13883).

(Values after patent publication US20220289794A1, “SYNTHETIC ANTIMICROBIAL PEPTIDES” (priority 2019, published 2022).)
